Structures are written as SMILES.

The test system of assay [1] is MCF7. The assay is described as follows: Cytotoxicity against human MCF7 cells after 3 days by MTS assay. Format: functional, cell-based. To be noted: MCF7, 72 h. A general note: Formazan colour is commonly taken as a measure of viable cells.
For assay [2], the system named is HT-29. The assay is described as follows: Cytotoxicity against human HT-29 cells after 3 days by MTS assay. The settings on record: HT-29, 72 h. Format: functional, cell-based.
Assay [3] has as its system HepG2. The assay is described as follows: Cytotoxicity against human HepG2 cells after 3 days by MTS assay. It is filed as functional, cell-based. The settings on record: HepG2, 72 h.
In assay [4] the test system is HepG2. Put plainly: Cytotoxicity against human HepG2 cells assessed as cell viability at 25 uM after 3 days by MTS assay. It is filed as functional. To be noted: HepG2, 72 h, read-out: Activity.
In assay [5] the test system is MCF7. The assay is described as follows: Cytotoxicity against human MCF7 cells assessed as cell viability at 25 uM after 3 days by MTS assay. It is filed as functional. The settings on record: MCF7, 72 h, read-out: Activity.
In assay [6] the test system is HT-29. The assay is described as follows: Cytotoxicity against human HT-29 cells assessed as cell viability at 25 uM after 3 days by MTS assay. It is filed as functional. To be noted: HT-29, 72 h, read-out: Activity.
A further assay deals with Nucleic Acid. The assay is described as follows: Binding affinity to Sheared herring sperm DNA assessed as remaining displaced EtBr by fluorescent intercalator displacement assay. Format: nucleic-acid assay. Also on record: concentration or dose not given beside the values.
Assay [7] relates to MCF7. Put plainly: Cytotoxicity against human MCF7 cells at 25 µM after 3 days by MTS assay. The settings on record: MCF7, 72 h.

Regarding `C[C@@H]1O[C@@H](OCC#Cc2c(-c3ccccc3)oc3ccccc23)CC[C@@H]1NCC1CCCCC1`, the IC50 in the assay on MCF7 [1] was greater than 25 µM; with HT-29 [2], 10.2 µM; in the assay with HepG2 [3], greater than 25 µM.

As to `C[C@@H]1O[C@@H](OCC#Cc2c(-c3ccccc3)sc3ccccc23)CC[C@@H]1N(C)C`, the IC50 is 8.2 µM with MCF7 [1], 3.3 µM in the assay on HT-29 [2] and 10 µM with HepG2 [3].

For `C[C@@H]1O[C@@H](OCC#Cc2c(-c3ccccc3)oc3ccccc23)CC[C@@H]1NCc1ccccn1`, the figures for the IC50 with MCF7 [1], in the assay on HT-29 [2] and in the assay on HepG2 [3] were 14.3 µM, 10.8 µM and 16.3 µM, respectively. For the same compound, the viability at 25 µM was less than 1% in the assay with HepG2 [4], 11% with MCF7 [5] and less than 1% with HT-29 [6].

As to `Cc1ccc(CN[C@H]2CC[C@H](OCC#Cc3c(-c4ccccc4)oc4ccccc34)O[C@H]2C)cc1`, the values for the concentration for half-maximal inhibition (IC50) with MCF7 [1], with HT-29 [2] and in the assay with HepG2 [3] were greater than 25 µM, 11.9 µM and greater than 25 µM, respectively. The figures for the viability at 25 µM in the assay with HepG2 [4], in the assay with MCF7 [5] and in the assay with HT-29 [6] were 65%, 51% and 29%, respectively.

Consider `CCCCN(CCCC)[C@H]1CC[C@H](OCC#Cc2c(-c3ccccc3)sc3ccccc23)O[C@H]1C`, for which the IC50 with MCF7 [1], with HT-29 [2] and in the assay with HepG2 [3] was greater than 25 µM each time.

Turning to `C[C@@H]1O[C@@H](OCC#Cc2c(-c3ccccc3)sc3ccccc23)CC[C@@H]1N(C)CC#N`, the IC50 with MCF7 [1] worked out at 7.7 µM; with HT-29 [2], 6.2 µM; in the assay with HepG2 [3], 12.3 µM.

With `CCCCN(CCCC)[C@H]1CC[C@H](OCC#Cc2c(-c3ccccc3)oc3ccccc23)O[C@H]1C`, the IC50 in the assay on MCF7 [1], in the assay with HT-29 [2] and in the assay with HepG2 [3] was greater than 25 µM in each case.

With `CCN[C@H]1CC[C@H](OCC#Cc2c(-c3ccccc3)oc3ccccc23)O[C@H]1C`, the IC50 amounted to 9.2 µM with MCF7 [1], 5.8 µM with HT-29 [2] and 6 µM with HepG2 [3]. Moreover, the Activity with Nucleic Acid was determined as 26%.

Consider `CCN(CC)[C@H]1CC[C@H](OCC#Cc2c(-c3ccccc3)oc3ccccc23)O[C@H]1C`, for which the IC50 in the assay with MCF7 [1] came to 9.7 µM; with HT-29 [2] it was 6.8 µM; in the assay with HepG2 [3], 10.7 µM.

As to `C[C@@H]1O[C@@H](OCC#Cc2c(-c3ccccc3)sc3ccccc23)CC[C@@H]1NCC#N`, the IC50 in the assay on MCF7 [1] was determined as 10.5 µM; in the assay with HT-29 [2], 10.8 µM; in the assay with HepG2 [3], 18 µM.

Take `CC(=O)N[C@H]1CC[C@H](OCC#Cc2c(-c3ccccc3)oc3ccccc23)O[C@H]1C`: the figures for the 50% inhibitory concentration (IC50) in the assay on MCF7 [1], with HT-29 [2] and with HepG2 [3] were 23.4 µM, 13.3 µM and 18.2 µM, respectively. Moreover, the Activity in the assay with Nucleic Acid amounted to 98.6%.

In the case of `CCCCN[C@H]1CC[C@H](OCC#Cc2c(-c3ccccc3)oc3ccccc23)O[C@H]1C`, the 50% inhibitory concentration (IC50) in the assay with MCF7 [1] turned out to be 20.8 µM; in the assay on HT-29 [2], 9.8 µM; in the assay with HepG2 [3], 19 µM.

In the case of `C[C@@H]1O[C@@H](OCC#Cc2c(-c3ccccc3)oc3ccccc23)CC[C@@H]1NCc1ccco1`, the IC50 was greater than 25 µM with MCF7 [1], 15.2 µM in the assay with HT-29 [2] and greater than 25 µM in the assay with HepG2 [3]. Besides, the values for the viability at 25 µM in the assay on HepG2 [4], with MCF7 [5] and in the assay with HT-29 [6] were 70%, 77% and 24%, respectively.

Regarding `C[C@@H]1O[C@@H](OCC#Cc2c(-c3ccccc3)oc3ccccc23)CC[C@@H]1NCc1ccc([N+](=O)[O-])cc1`, the IC50 in the assay with MCF7 [1], with HT-29 [2] and in the assay on HepG2 [3] was greater than 25 µM each time. The values for the viability at 25 µM in the assay on HepG2 [4], with MCF7 [5] and in the assay with HT-29 [6] were 94%, 86% and 59%, respectively.

Turning to `C[C@@H]1O[C@@H](OCC#Cc2c(-c3ccccc3)oc3ccccc23)CC[C@@H]1NCc1ccccc1`, the IC50 was greater than 25 µM in the assay on MCF7 [1], 17.9 µM in the assay with HT-29 [2] and greater than 25 µM with HepG2 [3]. In addition, the viability at 25 µM with HepG2 [4] was 87%; in the assay on MCF7 [5] it was 72%; with HT-29 [6], 31%.

Take `C[C@@H]1O[C@@H](OCC#Cc2c(-c3ccccc3)sc3ccccc23)CC[C@@H]1NCc1ccccc1`: the results for the half-inhibitory concentration (IC50) in the assay on MCF7 [1], in the assay with HT-29 [2] and in the assay on HepG2 [3] were greater than 25 µM, 19 µM and greater than 25 µM, respectively.

Turning to `COc1ccc(CN[C@H]2CC[C@H](OCC#Cc3c(-c4ccccc4)oc4ccccc34)O[C@H]2C)cc1`, the viability at 25 µM in the assay with HepG2 [4] amounted to 12%; in the assay on MCF7 [5] it was 31%; in the assay on HT-29 [6], 8%. Besides, the IC50 came out at 7.9 µM with HT-29 [2] and 13.1 µM in the assay on HepG2 [3]. Also, the cell viability at 25 µM in the assay with MCF7 [7] was found to be 31%.

Regarding `CCCCCCN[C@H]1CC[C@H](OCC#Cc2c(-c3ccccc3)sc3ccccc23)O[C@H]1C`, the IC50 with MCF7 [1] stood at 6.8 µM; in the assay on HT-29 [2], 5.1 µM; in the assay on HepG2 [3], 19.1 µM.

For `CC(C)CCN(CCC(C)C)[C@H]1CC[C@H](OCC#Cc2c(-c3ccccc3)oc3ccccc23)O[C@H]1C`, the IC50 in the assay with MCF7 [1], in the assay on HT-29 [2] and in the assay with HepG2 [3] was greater than 25 µM in each case.

`C[C@@H]1O[C@@H](OCC#Cc2c(-c3ccccc3)oc3ccccc23)CC[C@@H]1NCc1ccc[nH]1`: the figures for the IC50 in the assay with MCF7 [1], in the assay on HT-29 [2] and in the assay with HepG2 [3] were 18.1 µM, 11.1 µM and 20.8 µM, respectively. The viability at 25 µM was less than 1% with HepG2 [4], 14% in the assay on MCF7 [5] and less than 1% with HT-29 [6].

Regarding `C[C@@H]1O[C@@H](OCC#Cc2c(-c3ccccc3)oc3ccccc23)CC[C@@H]1NCc1ccc(O)cc1`, the IC50 in the assay with MCF7 [1] was 10.9 µM; in the assay on HT-29 [2] it was 5.8 µM; with HepG2 [3], 13.4 µM. Further, the viability at 25 µM in the assay on HepG2 [4] was less than 1%; in the assay on MCF7 [5] it was 2%; in the assay with HT-29 [6], less than 1%.

As to `CCN[C@H]1CC[C@H](OCC#Cc2c(-c3ccccc3)sc3ccccc23)O[C@H]1C`, the IC50 in the assay on MCF7 [1] was 5.9 µM; in the assay with HT-29 [2] it was 3.4 µM; in the assay on HepG2 [3], 6.6 µM.

Regarding `C[C@@H]1O[C@@H](OCC#Cc2c(-c3ccccc3)sc3ccccc23)CC[C@@H]1NCc1ccc(O)cc1`, the results for the IC50 in the assay with MCF7 [1], in the assay with HT-29 [2] and in the assay with HepG2 [3] were 12 µM, 5.1 µM and 20.3 µM, respectively.

As to `C[C@@H]1O[C@@H](OCC#Cc2c(-c3ccccc3)oc3ccccc23)CC[C@@H]1N`, the viability at 25 µM in the assay on HepG2 [4], in the assay on MCF7 [5] and with HT-29 [6] was less than 1% each time. In addition, the Activity in the assay with Nucleic Acid came to 68.5%.

`CN[C@H]1CC[C@H](OCC#Cc2c(-c3ccccc3)sc3ccccc23)O[C@H]1C`: the IC50 in the assay on MCF7 [1] turned out to be 7.1 µM; with HT-29 [2], 5.4 µM; with HepG2 [3] it was 8.8 µM.

Consider `CC(C)CCN[C@H]1CC[C@H](OCC#Cc2c(-c3ccccc3)oc3ccccc23)O[C@H]1C`, for which the IC50 in the assay on MCF7 [1] was 11.3 µM; in the assay on HT-29 [2], 6.6 µM; in the assay on HepG2 [3] it was 13.6 µM.

`CCN(CC)[C@H]1CC[C@H](OCC#Cc2c(-c3ccccc3)sc3ccccc23)O[C@H]1C`: the figures for the IC50 in the assay on MCF7 [1], in the assay with HT-29 [2] and with HepG2 [3] were 12 µM, 3.9 µM and 11.7 µM, respectively.

As for `COc1cc(CN[C@H]2CC[C@H](OCC#Cc3c(-c4ccccc4)oc4ccccc34)O[C@H]2C)cc(OC)c1OC`, the results for the viability at 25 µM in the assay on HepG2 [4], in the assay with MCF7 [5] and in the assay on HT-29 [6] were 7%, 30% and 6%, respectively. Besides, the IC50 is 8 µM with HT-29 [2] and 11.3 µM in the assay with HepG2 [3]. Also, the cell viability at 25 µM with MCF7 [7] amounted to 30%.

Regarding `CCCCCCN[C@H]1CC[C@H](OCC#Cc2c(-c3ccccc3)oc3ccccc23)O[C@H]1C`, the IC50 is 14.8 µM with MCF7 [1], 6 µM in the assay on HT-29 [2] and 14.4 µM in the assay on HepG2 [3].

As for `C[C@@H]1O[C@@H](OCC#Cc2c(-c3ccccc3)oc3ccccc23)CC[C@@H]1N(C)C`, the IC50 in the assay with MCF7 [1] is 10.3 µM; in the assay with HT-29 [2], 6.1 µM; with HepG2 [3] it was 6.8 µM.

Turning to `COc1ccc(CN[C@H]2CC[C@H](OCC#Cc3c(-c4ccccc4)sc4ccccc34)O[C@H]2C)cc1`, the concentration for half-maximal inhibition (IC50) with MCF7 [1] is greater than 25 µM; in the assay with HT-29 [2], 6.2 µM; in the assay with HepG2 [3], greater than 25 µM.

In the case of `C[C@H](N)C(=O)N[C@H]1CC[C@H](OCC#Cc2c(-c3ccccc3)oc3ccccc23)O[C@H]1C`, the IC50 in the assay on MCF7 [1] worked out at 8 µM; in the assay with HT-29 [2], 6.8 µM; in the assay with HepG2 [3] it was 4.1 µM. Also, the Activity in the assay on Nucleic Acid was determined as 52.9%.

Take `CC(C)N[C@H]1CC[C@H](OCC#Cc2c(-c3ccccc3)oc3ccccc23)O[C@H]1C`: the figures for the IC50 with MCF7 [1], with HT-29 [2] and in the assay with HepG2 [3] were 12.6 µM, 5.8 µM and 13 µM, respectively. In addition, in the assay with Nucleic Acid, the Activity was 79%.

With `CCCCN[C@H]1CC[C@H](OCC#Cc2c(-c3ccccc3)sc3ccccc23)O[C@H]1C`, the concentration for half-maximal inhibition (IC50) with MCF7 [1] was 10.2 µM; with HT-29 [2], 7 µM; in the assay on HepG2 [3] it was 18.6 µM.

The term IC50 denotes the concentration that gives 50% inhibition. By cell viability is commonly meant the share of living cells, or the viability signal relative to a control.

Values taken from ChEMBL document CHEMBL1770050, “Effect of carbohydrate amino group modifications on the cytotoxicity of glycosylated 2-phenyl-benzo[b]thiophenes and 2-phenyl-benzo[b]furans” (Bioorg Med Chem Lett, 2011).
